Source: ChEMBL document CHEMBL4507290 (2021)

Key:
D(2) dopamine receptor = D(2) dopamine receptor (Homo sapiens, UniProt P14416); conditions: Compound concentration 10.0 uM
[1] = tested on: Tyrosine-protein kinase ABL1 (Homo sapiens), P00519 [T315I]; conditions: Compound concentration 1000.0 nM
[2] = biological target: Dual specificity mitogen-activated protein kinase kinase 7 (Homo sapiens) (UniProt O14733); conditions: Compound concentration 1000.0 nM
[3] = tested on: Tyrosine-protein kinase ABL1 (Homo sapiens), P00519 [Q252H]; conditions: Compound concentration 1000.0 nM
[4] = tested on: Tyrosine-protein kinase ABL1 (Homo sapiens), P00519 [F317L]; conditions: Compound concentration 1000.0 nM
[5] = tested on: Tyrosine-protein kinase ABL1 (Homo sapiens), P00519 [F317L]; conditions: Compound concentration 1000.0 nM; remark: listed apart in the source
[6] = biological target: Serine/threonine-protein kinase B-raf (Homo sapiens) (UniProt P15056); conditions: Compound concentration 1000.0 nM
[7] = biological target: Histamine H1 receptor (Homo sapiens) (UniProt P35367); conditions: Compound concentration 10.0 uM
[8] = biological target: Delta-type opioid receptor (Homo sapiens) (UniProt P41143); conditions: Compound concentration 10.0 uM
[9] = biological target: 5-hydroxytryptamine receptor 6 (Homo sapiens) (UniProt P50406); conditions: Compound concentration 10.0 uM
[10] = biological target: Histamine H2 receptor (Homo sapiens) (UniProt P25021); conditions: Compound concentration 10.0 uM
[11] = biological target: 5-hydroxytryptamine receptor 2B (Homo sapiens) (UniProt P41595); conditions: Compound concentration 10.0 uM
[12] = biological target: Inhibitor of nuclear factor kappa-B kinase subunit epsilon (Homo sapiens) (UniProt Q14164); conditions: Compound concentration 1000.0 nM
[13] = biological target: 5-hydroxytryptamine receptor 1A (Homo sapiens) (UniProt P08908); conditions: Compound concentration 10.0 uM
[14] = biological target: T1, Sodium-dependent dopamine transporter (Homo sapiens, UniProt Q01959); conditions: Compound concentration 10.0 uM
[15] = biological target: Inhibitor of nuclear factor kappa-B kinase subunit alpha (Homo sapiens) (UniProt O15111); conditions: Compound concentration 1000.0 nM
[16] = biological target: T1, Sodium-dependent dopamine transporter; assay: GPCRScan assay: inhibition of DAT; parameters: radioligand conc. used [nm] 3.6 – 16.0, parental cells stable HEK
[17] = biological target: Alpha-2A adrenergic receptor (Homo sapiens) (UniProt P08913); conditions: Compound concentration 10.0 uM
[18] = biological target: cAMP-dependent protein kinase catalytic subunit beta (Homo sapiens) (UniProt P22694); conditions: Compound concentration 1000.0 nM
[19] = biological target: Alpha-1D adrenergic receptor (Homo sapiens) (UniProt P25100); conditions: Compound concentration 10.0 uM
[20] = biological target: Alpha-1B adrenergic receptor (Homo sapiens) (UniProt P35368); conditions: Compound concentration 10.0 uM
[21] = biological target: cAMP-dependent protein kinase catalytic subunit alpha (Homo sapiens) (UniProt P17612); conditions: Compound concentration 1000.0 nM
[22] = biological target: MAP kinase-activated protein kinase 2 (Homo sapiens) (UniProt P49137); conditions: Compound concentration 1000.0 nM
[23] = tested on: Hepatocyte growth factor receptor (Homo sapiens), P08581 [M1250T]; conditions: Compound concentration 1000.0 nM
[24] = biological target: T1, Sodium-dependent dopamine transporter; assay: […] binding assay (SLC6A3)

T1 sequence (Q01959 whole entry): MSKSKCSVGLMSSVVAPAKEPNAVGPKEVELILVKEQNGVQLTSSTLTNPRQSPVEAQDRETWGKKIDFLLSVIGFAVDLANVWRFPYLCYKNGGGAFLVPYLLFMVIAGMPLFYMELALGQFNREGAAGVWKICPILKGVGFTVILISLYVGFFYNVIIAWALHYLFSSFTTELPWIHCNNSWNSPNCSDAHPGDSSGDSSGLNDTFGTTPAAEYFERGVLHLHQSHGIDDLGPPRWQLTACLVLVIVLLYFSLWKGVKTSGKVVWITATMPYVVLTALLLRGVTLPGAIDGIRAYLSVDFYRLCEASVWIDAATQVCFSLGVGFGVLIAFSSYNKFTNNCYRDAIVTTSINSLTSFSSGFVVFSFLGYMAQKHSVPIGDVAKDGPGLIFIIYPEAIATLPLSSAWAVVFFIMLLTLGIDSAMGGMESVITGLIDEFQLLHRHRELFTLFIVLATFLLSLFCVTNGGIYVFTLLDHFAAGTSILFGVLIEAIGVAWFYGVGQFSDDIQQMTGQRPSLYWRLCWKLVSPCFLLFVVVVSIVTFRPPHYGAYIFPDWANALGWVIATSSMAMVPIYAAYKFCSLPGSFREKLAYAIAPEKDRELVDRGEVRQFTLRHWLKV
Histamine H1 receptor (Homo sapiens), sequence (P35367 whole entry): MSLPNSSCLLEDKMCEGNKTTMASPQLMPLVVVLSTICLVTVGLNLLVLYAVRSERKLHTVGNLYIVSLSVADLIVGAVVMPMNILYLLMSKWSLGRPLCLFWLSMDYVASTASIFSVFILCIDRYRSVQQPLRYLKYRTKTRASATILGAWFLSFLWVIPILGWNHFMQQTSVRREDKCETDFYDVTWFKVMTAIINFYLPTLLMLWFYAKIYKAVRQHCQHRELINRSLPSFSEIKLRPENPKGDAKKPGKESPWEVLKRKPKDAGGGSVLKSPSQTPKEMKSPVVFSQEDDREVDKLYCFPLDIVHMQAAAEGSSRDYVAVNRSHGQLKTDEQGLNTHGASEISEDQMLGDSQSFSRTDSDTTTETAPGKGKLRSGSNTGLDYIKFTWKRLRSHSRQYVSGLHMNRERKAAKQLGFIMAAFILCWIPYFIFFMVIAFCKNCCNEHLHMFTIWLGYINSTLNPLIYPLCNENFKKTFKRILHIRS
Inhibitor of nuclear factor kappa-B kinase subunit epsilon (Homo sapiens), sequence (Q14164 whole entry): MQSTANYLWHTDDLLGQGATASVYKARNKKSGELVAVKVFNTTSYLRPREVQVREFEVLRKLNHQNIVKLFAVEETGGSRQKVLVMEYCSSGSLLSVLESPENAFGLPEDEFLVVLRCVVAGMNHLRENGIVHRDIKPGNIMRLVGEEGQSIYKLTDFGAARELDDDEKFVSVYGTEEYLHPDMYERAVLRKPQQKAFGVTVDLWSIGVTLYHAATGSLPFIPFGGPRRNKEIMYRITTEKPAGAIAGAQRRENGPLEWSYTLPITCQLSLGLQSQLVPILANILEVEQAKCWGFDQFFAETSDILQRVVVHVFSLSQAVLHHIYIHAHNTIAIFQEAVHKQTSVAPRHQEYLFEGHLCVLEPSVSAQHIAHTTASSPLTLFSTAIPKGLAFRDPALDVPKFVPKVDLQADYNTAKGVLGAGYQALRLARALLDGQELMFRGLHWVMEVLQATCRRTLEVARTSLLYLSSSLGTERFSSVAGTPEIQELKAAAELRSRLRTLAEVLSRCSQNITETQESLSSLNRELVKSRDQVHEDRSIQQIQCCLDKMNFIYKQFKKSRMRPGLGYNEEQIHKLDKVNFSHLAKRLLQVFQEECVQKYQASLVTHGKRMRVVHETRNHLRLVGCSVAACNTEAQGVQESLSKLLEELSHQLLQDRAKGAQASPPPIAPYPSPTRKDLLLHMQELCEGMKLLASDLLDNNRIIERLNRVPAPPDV
Delta-type opioid receptor (Homo sapiens), sequence (P41143 whole entry): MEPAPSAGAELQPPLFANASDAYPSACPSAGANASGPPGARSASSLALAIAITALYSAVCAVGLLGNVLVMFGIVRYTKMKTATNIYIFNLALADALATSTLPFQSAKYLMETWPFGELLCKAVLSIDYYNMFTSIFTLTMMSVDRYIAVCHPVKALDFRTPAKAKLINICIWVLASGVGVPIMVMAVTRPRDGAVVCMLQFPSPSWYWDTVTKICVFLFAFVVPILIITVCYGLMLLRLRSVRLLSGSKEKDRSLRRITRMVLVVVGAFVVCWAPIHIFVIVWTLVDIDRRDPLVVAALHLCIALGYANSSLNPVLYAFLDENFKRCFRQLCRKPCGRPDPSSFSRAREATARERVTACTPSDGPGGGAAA
Histamine H2 receptor (Homo sapiens), sequence (P25021 whole entry): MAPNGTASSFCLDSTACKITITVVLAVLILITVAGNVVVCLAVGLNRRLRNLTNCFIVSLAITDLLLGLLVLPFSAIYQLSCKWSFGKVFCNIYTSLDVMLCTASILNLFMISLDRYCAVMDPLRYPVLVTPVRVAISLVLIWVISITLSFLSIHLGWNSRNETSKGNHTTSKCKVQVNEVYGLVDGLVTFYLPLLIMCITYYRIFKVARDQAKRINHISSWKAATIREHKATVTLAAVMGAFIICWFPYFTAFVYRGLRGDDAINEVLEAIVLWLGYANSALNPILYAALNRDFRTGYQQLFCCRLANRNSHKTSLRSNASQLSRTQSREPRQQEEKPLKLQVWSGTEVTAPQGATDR
5-hydroxytryptamine receptor 2B (Homo sapiens), sequence (P41595 whole entry): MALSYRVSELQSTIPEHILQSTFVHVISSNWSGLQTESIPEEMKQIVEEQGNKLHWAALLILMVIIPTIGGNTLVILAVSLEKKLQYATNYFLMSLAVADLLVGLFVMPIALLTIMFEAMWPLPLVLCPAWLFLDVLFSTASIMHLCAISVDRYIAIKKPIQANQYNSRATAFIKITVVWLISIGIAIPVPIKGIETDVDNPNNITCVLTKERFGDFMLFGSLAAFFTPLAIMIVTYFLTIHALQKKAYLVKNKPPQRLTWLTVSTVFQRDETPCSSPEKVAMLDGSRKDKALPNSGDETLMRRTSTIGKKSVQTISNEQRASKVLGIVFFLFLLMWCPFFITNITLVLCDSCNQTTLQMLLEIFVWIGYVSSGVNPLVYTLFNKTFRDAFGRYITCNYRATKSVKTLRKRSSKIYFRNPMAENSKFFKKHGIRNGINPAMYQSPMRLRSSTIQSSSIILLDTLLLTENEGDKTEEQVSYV
5-hydroxytryptamine receptor 6 (Homo sapiens), sequence (P50406 whole entry): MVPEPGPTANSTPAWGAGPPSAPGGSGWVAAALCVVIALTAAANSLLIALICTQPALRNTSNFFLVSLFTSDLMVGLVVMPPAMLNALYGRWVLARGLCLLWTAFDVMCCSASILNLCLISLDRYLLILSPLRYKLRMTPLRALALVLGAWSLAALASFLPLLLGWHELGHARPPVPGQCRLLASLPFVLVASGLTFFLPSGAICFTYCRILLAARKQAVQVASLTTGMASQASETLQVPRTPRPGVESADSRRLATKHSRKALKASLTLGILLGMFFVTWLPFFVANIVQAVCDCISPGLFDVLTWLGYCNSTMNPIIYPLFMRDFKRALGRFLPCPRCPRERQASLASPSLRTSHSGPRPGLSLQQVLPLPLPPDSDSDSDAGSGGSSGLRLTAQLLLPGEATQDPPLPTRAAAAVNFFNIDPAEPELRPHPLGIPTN
Alpha-1D adrenergic receptor (Homo sapiens), sequence (P25100 whole entry): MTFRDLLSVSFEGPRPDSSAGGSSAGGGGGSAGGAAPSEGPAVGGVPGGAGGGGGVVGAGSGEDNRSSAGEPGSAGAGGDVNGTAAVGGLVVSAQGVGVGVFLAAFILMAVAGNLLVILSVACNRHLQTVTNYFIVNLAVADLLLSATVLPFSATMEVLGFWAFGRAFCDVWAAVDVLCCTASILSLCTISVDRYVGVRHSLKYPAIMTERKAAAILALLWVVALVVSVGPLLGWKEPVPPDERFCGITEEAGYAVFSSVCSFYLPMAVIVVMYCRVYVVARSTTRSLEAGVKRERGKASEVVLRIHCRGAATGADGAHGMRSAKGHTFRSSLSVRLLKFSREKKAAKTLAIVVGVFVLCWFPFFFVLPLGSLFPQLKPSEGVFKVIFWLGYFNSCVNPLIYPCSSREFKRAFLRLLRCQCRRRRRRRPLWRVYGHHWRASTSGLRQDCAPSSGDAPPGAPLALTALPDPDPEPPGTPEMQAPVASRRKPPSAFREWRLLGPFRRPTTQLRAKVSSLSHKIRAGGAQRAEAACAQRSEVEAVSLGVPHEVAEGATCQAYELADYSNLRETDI
MAP kinase-activated protein kinase 2 (Homo sapiens), sequence (P49137 whole entry, looked up): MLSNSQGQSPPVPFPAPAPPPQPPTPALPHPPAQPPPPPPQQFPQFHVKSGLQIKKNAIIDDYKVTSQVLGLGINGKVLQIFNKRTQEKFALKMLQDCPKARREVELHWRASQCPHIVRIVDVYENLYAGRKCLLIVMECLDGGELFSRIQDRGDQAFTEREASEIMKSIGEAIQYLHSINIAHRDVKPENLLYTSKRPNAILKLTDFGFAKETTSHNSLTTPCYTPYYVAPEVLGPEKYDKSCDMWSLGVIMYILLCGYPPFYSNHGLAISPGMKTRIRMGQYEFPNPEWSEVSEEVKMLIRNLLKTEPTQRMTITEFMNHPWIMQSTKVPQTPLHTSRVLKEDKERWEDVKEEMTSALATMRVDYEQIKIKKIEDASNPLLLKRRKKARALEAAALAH
D(2) dopamine receptor, sequence (P14416 whole entry): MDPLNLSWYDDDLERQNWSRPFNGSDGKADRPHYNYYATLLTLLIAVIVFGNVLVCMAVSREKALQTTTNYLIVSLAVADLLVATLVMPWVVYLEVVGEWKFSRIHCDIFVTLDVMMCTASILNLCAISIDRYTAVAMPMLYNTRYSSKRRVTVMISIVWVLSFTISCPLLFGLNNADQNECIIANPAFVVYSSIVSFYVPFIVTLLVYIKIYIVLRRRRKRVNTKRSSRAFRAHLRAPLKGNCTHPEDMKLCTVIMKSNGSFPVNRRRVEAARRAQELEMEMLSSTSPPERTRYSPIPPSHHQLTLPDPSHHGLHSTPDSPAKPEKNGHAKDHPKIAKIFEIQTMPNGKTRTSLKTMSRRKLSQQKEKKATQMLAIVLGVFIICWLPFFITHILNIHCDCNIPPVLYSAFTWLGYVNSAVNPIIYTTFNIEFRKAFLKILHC

Compound: CN([C@@H]1CCc2c(CC(=O)O)c3cc(S(C)(=O)=O)ccc3n2C1)S(=O)(=O)c1ccc(F)cc1
- inhibition (D(2) dopamine receptor): -3.84%
- residual activity [1]: 88%
- residual activity [2]: 100%
- residual activity [3]: 98%
- residual activity [4]: 90%
- residual activity [5]: 92%
- residual activity [6]: 98%
- inhibition [7]: -9.04%
- inhibition [8]: 20%
- inhibition [9]: -5.39%

Compound: CN([C@@H]1CCc2c(CC(=O)O)c3ccccc3n2C1)S(=O)(=O)c1ccc(F)cc1 [MK-7246]
- inhibition [10]: -1.62%
- inhibition [11]: -4.07%
- residual activity [12]: 84%
- inhibition [13]: 15.5%
- inhibition [14]: 77.1%
- residual activity [15]: 100%
- Ki ([16]; read-out: Ki): 0.283 µM
- Ki ([16]; read-out: pKi (converted)): 0.316 µM
- inhibition [17]: -3.89%
- residual activity [18]: 100%
- inhibition [19]: 50%
- inhibition [20]: -8.18%
- residual activity [21]: 100%
- residual activity [22]: 100%
- residual activity [23]: 100%
- Ki [24]: 0.373 µM (not active)
